Laboratory results taken from patent US9282737B2, “Agent for preventing pollen dispersal” (NOF Corporation, priority 2008, dated 2016).
Entries after “also recorded” stand apart in the source; their conditions may differ.

Columns and labels:
[1] = system: Cryptomeria japonica male flower buds and needle leaves; assay: Evaluation 1: immersion test of Cryptomeria japonica
Experimental: Evaluation 1 (Immersion Test of Cryptomeria japonica)
First, as agents to be used for an immersion test of Cryptomeria japonica, fatty acid derivative, fatty acid, polyoxyalkylene derivative, fats and oils and the like shown in Tables 1 and 2 were prepared. Next, many branches (length about 10 cm) of Cryptomeria japonica with 15 male flower buds on the tip were taken from the same tree of Cryptomeria japonica, and each group (five leaves for one group) was immersed in the agents (100 ml) of Tables 1 and 2. After immersing for about 1 min, the branches were taken out from the liquid and placed in a beaker. Browning changes were inspected visually on the male flower buds and needle leaves after one week. The test was performed using Cryptomeria japonica of August and November.

HLB of agent = type: physicochemical
[2] = branches of August, immersed about 1 min in agent, browning inspected visually after one week
[3] = branches of November, immersed about 1 min in agent, browning inspected visually after one week

Row | Compound | change of state of male flower bud (August) [1, 2] | change of state of male flower bud (November) [1, 3] | change of state of needle leaf (August) ([1]; in vivo) | change of state of needle leaf (November) ([1]; in vivo) | change of state of needle leaf (August) [1, 2] | change of state of needle leaf (November) [1, 3] | HLB (HLB of agent)
1 | CCCCCCCC/C=C\CCCCCCCC(=O)O [Comparative Example 1, oleic acid] | markedly browned | no effect; also recorded: no change | no change | no change |  |  | 
2 | CCCCCCCC/C=C\CCCCCCCC(=O)[O-].[Na+] [compound 2, sodium oleate] | markedly browned | no effect; also recorded: no change |  |  | no change | no change | 
3 | CCCCC/C=C\C/C=C\CCCCCCCC(=O)O [compound 3, linoleic acid] | markedly browned | no effect; also recorded: no change | no change | no change |  |  | 
4 | methoxypolyoxyethylene oleic acid ester [Example 3] | browned | browned | no change | no change |  |  | 
5 | polyoxyethylene dilinoleic acid ester [Example 4] | markedly browned | markedly browned | no change | no change |  |  | 
6 | polyoxyethylene glycerol linoleic acid ester [Example 9] | browned | browned | no change | no change |  |  | 
7 | polyoxyethylene linoleic acid ester [Example 2] | markedly browned | markedly browned | no change | no change |  |  | (HLB = 10.2)
8 | polyoxyethylene linolenic acid ester [Comparative Example 5] | an effect was obtained; also recorded: markedly browned | an effect was obtained; also recorded: markedly browned |  |  |  |  | 
9 | polyoxyethylene methylglucoside oleic acid ester [Example 8] | browned | browned | no change | no change |  |  | 
10 | polyoxyethylene oleic acid ester [Example 1] | browned | browned |  |  | no change | no change | 
11 | polyoxyethylene sorbitan oleic acid ester [Example 6] | browned | browned |  |  |  |  | 
12 | polyoxyethylene sorbitan palmitic acid ester [compound 7] | no effect; also recorded: no change | no effect; also recorded: no change |  |  |  |  | 
13 | polyoxyethylene sorbitol [Comparative Example 6] | not influenced; also recorded: no change | not influenced; also recorded: no change |  |  | not influenced; also recorded: no change | not influenced; also recorded: no change | 
14 | polyoxyethylene sorbitol linoleic acid ester [Example 7] | browned | browned | ho change | no change |  |  | 
15 | polyoxyethylene stearic acid ester [compound 4] | no effect; also recorded: no change | no effect; also recorded: no change |  |  |  |  | 
16 | polyoxyethylene-block-polyoxypropylene oleic acid ester [Example 5] | browned | browned | no change | no change |  |  | 
17 | sunflower oil [compound 9] |  |  | no change | no change |  |  | 
